We go through 17 compounds from US11951094B2, “TLR2 modulator compounds, pharmaceutical compositions and uses thereof” (Axial Therapeutics, Inc., priority 2020, dated 2024).

Where a name gives a salt, the structure may show the parent alone.

Chain of TLR2 (O60603 21-784): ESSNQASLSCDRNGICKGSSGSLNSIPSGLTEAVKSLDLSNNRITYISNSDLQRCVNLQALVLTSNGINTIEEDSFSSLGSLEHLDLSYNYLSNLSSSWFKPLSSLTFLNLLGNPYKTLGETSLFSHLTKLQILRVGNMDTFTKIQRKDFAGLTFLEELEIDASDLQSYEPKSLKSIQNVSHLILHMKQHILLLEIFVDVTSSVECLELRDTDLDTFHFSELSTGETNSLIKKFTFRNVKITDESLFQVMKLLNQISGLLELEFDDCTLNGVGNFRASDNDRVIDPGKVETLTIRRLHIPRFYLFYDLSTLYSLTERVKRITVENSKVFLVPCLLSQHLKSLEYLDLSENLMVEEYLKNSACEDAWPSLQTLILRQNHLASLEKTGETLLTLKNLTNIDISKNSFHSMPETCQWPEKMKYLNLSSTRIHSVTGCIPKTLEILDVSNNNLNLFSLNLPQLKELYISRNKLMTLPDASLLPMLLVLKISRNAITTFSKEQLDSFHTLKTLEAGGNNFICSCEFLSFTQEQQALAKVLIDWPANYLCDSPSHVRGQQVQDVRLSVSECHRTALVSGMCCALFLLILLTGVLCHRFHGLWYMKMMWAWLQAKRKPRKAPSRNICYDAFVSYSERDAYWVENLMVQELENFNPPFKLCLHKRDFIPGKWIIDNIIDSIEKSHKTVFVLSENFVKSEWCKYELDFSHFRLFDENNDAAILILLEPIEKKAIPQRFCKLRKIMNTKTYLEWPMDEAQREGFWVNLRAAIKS

The first experiment has as its target TLR2 (Homo sapiens, UniProt O60603). Nature of the experiment: TLR2 agonist screening assay, HEK-Blue TLR2 reporter cell line (NF-kB-driven SEAP, absorbance at 600 nm). It is filed as cell-based. Particulars: HEK-Blue TLR2 reporter cells, agonist mode; average of all runs (Table 3). More on the design: host or cells: HEK-293 (HEK-Blue TLR2 reporter cell line). Summed up:
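EC50 values come from 600 nm absorbance of SEAP-converted substrate after overnight agonist exposure. The reporter line was HEK-293 engineered with TLR2 and an NF-kB-SEAP construct, seeded at about 40,000 cells per well 16-24 h beforehand. Compounds were added at 1% final DMSO.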
As a reminder, the EC50 is the concentration needed to bring the measured effect to its halfway point. Compound `CCCCCCCCCCCCCCNC(=O)[C@H]1CCN(C(=O)c2ccc(C(=O)N3C[C@@H](C(=O)N[C@H]4C[C@@H]4c4ccccc4)[C@H](C(=O)N[C@H]4C[C@@H]4c4ccccc4)C3)cc2)C1` [Compound 004] gave an EC50 of 0.1 to 50 nM.

`CCCCCCCCNC(=O)C1CN(C(=O)c2ccc(C(=O)N3C[C@@H](C(=O)N[C@H]4C[C@@H]4c4ccccc4)[C@H](C(=O)N[C@H]4C[C@@H]4c4ccccc4)C3)cc2)CCN1C(=O)CCCCCCC` (stereo partly drawn) [Compound 065, (3S,4S)-1-(4-(4-octanoyl-3-(octylcarbamoyl)piperazine-1-carbonyl)benzoyl)-N3,N4-bis((1S,2R)-2-phenylcyclopropyl)pyrrolidine-3,4-dicarboxamide] gave an EC50 of 51 to 350 nM.

With `CCCCCCCCN1CCN(C(=O)c2ccc(C(=O)N3C[C@@H](C(=O)N[C@H]4C[C@@H]4c4ccccc4)[C@H](C(=O)N[C@H]4C[C@@H]4c4ccccc4)C3)cc2)CC1C(=O)NCCCCCC` (stereo partly drawn) [Compound 018, (3S,4S)-1-(4-(3-(hexylcarbamoyl)-4-octylpiperazine-1-carbonyl)benzoyl)-N3,N4-bis((1S,2R)-2-phenylcyclopropyl)pyrrolidine-3,4-dicarboxamide formate], the EC50 lay within 351 to 1000 nM.

As for `CCCCCCCNC(=O)C1CN(C(=O)c2ccc(C(=O)N3C[C@@H](C(=O)N[C@H]4C[C@@H]4c4ccccc4)[C@H](C(=O)N[C@H]4C[C@@H]4c4ccccc4)C3)cc2)CCN1C(=O)CCCCCCC` (some centres unmarked) [Compound 058], the EC50 lay in the range of 51 to 350 nM.

For `CCCCCCCCCCCCCCNC(=O)C1CN(C(=O)c2ccc(C(=O)N3C[C@@H](C(=O)N[C@H]4C[C@@H]4c4ccccc4)[C@H](C(=O)N[C@H]4C[C@@H]4c4ccccc4)C3)cc2)CCN1C` (stereo partly drawn) [Compound 023, (3S,4S)-1-(4-(4-methyl-3-(tetradecylcarbamoyl)piperazine-1-carbonyl)benzoyl)-N3,N4-bis((1S,2R)-2-phenylcyclopropyl)pyrrolidine-3,4-dicarboxamide formate], the EC50 lay in the range of 0.1 to 50 nM.

`CCCCCCCCCCCCCCC(=O)NC(C)(C)CNC(=O)c1ccc(C(=O)N2C[C@@H](C(=O)N[C@H]3C[C@@H]3c3ccccc3)[C@H](C(=O)N[C@H]3C[C@@H]3c3ccccc3)C2)cc1` [Compound 012] registered an EC50 greater than 1000 nM.

The experiment is the same for the next values; noted with them: HEK-Blue TLR2 reporter cells, agonist mode; average of all runs (Table 4).
`CCCCCCCC(=O)N1CCCN(C(=O)c2ccc(C(=O)N3C[C@@H](C(=O)N[C@H]4C[C@@H]4c4ccccc4)[C@H](C(=O)N[C@H]4C[C@@H]4c4ccccc4)C3)cc2)C[C@H]1C(=O)NCCCCCC` (single isomer, unassigned) [Compound 145] gave an EC50 greater than 1000 nM.

`CCCCCCCCCCCCCCC(=O)N1CCC[C@@H](NC(=O)c2ccc(C(=O)N3C[C@@H](C(=O)N[C@H]4C[C@@H]4c4ccccc4)[C@H](C(=O)N[C@H]4C[C@@H]4c4ccccc4)C3)cc2)C1` [Compound 153, (3S,4S)-1-(4-(((R)-1-pentadecanoylpiperidin-3-yl)carbamoyl)benzoyl)-N3,N4-bis((1S,2R)-2-phenylcyclopropyl)pyrrolidine-3,4-dicarboxamide]: the half-maximal effective concentration (EC50) is greater than 1000 nM.

In turn, `CCCCCCCCNC(=O)[C@H](CNC(=O)c1ccc(C(=O)N2C[C@@H](C(=O)N[C@H]3C[C@@H]3c3ccccc3)[C@H](C(=O)N[C@H]3C[C@@H]3c3ccccc3)C2)cc1)NC(=O)CCCCCC` [Compound 141, (3S,4S)-1-(4-(((S)-2-heptanamido-3-(octylamino)-3-oxopropyl)carbamoyl)benzoyl)-N3,N4-bis((1S,2R)-2-phenylcyclopropyl)pyrrolidine-3,4-dicarboxamide] yielded an EC50 of 0.1 to 50 nM.

Regarding `CCCCCCCCCCCCCCC(=O)N[C@H]1CN(C(=O)c2ccc(C(=O)N3C[C@@H](C(=O)N[C@H]4C[C@@H]4c4ccccc4)[C@H](C(=O)N[C@H]4C[C@@H]4c4ccccc4)C3)cc2)C[C@H]1OC` [Compound 236, (3S,4S)-1-(4-((3R,4S)-3-methoxy-4-pentadecanamidopyrrolidine-1-carbonyl)benzoyl)-N3,N4-bis ((1S,2R)-2-phenylcyclopropyl) pyrrolidine-3,4-dicarboxamide], the EC50 fell in the range of 0.1 to 50 nM.

The compound `CCCCCCCC(=O)N1CCCN(C(=O)c2cccc(C(=O)N3C[C@@H](C(=O)N[C@H]4C[C@@H]4c4ccccc4)[C@H](C(=O)N[C@H]4C[C@@H]4c4ccccc4)C3)c2)C[C@@H]1C(=O)NCCCCCC` (single isomer, unassigned) [Compound 191] registered an EC50 of 351 to 1000 nM.

Regarding `CCCCCCCCCCCCCCC(=O)N[C@@H]1CCN(Cc2ccc(C(=O)N3C[C@@H](C(=O)N[C@H]4C[C@@H]4c4ccccc4)[C@H](C(=O)N[C@H]4C[C@@H]4c4ccccc4)C3)cc2)C1=O` [Compound 126, (3S,4S)-1-(4-(((R)-2-oxo-3-pentadecanamidopyrrolidin-1-yl)methyl)benzoyl)-N3,N4-bis((1S,2R)-2-phenylcyclopropyl)pyrrolidine-3,4-dicarboxamide], the EC50 is greater than 1000 nM.

As to `CCCCCCCCCCCCCCNC(=O)[C@@H]1CN(C(=O)c2ccc(C(=O)N3C[C@@H](C(=O)N[C@H]4C[C@@H]4c4ccccc4)[C@H](C(=O)N[C@H]4C[C@@H]4c4ccccc4)C3)cc2)C[C@H]1N(C)[C@H](C)c1ccccc1` [Compound 090, (3S,4S)-1-(4-((3S,4R)-3-(methyl((R)-1-phenylethyl)amino)-4-(tetradecylcarbamoyl)pyrrolidine-1-carbonyl)benzoyl)-N3,N4-bis((1S,2R)-2-phenylcyclopropyl)pyrrolidine-3,4-dicarboxamide], the EC50 is greater than 1000 nM.

As for `CCCCCCCCCC(=O)N[C@@H](CN1C(=O)c2ccc(C(=O)N3C[C@@H](C(=O)N[C@H]4C[C@@H]4c4ccccc4)[C@H](C(=O)N[C@H]4C[C@@H]4c4ccccc4)C3)cc2C1=O)C(=O)NCCCCCC` [Compound 240, (3S,4S)-1-(2-((S)-2-decanamido-3-(hexylamino)-3-oxopropyl)-1,3-dioxoisoindoline-5-carbonyl)-N3,N4-bis((1S,2R)-2-phenylcyclopropyl)pyrrolidine-3,4-dicarboxamide], the EC50 is greater than 1000 nM.

The compound `CCCCCCCCN1C(=O)N(Cc2ccc(C(=O)N3C[C@@H](C(=O)N[C@H]4C[C@@H]4c4ccccc4)[C@H](C(=O)N[C@H]4C[C@@H]4c4ccccc4)C3)cc2)C[C@H]1C(=O)NCCCCCC` [Compound 167, (3S,4S)-1-(4-(((S)-4-(hexylcarbamoyl)-3-octyl-2-oxoimidazolidin-1-yl)methyl)benzoyl)-N3,N4-bis((1S,2R)-2-phenylcyclopropyl)pyrrolidine-3,4-dicarboxamide] had an EC50 of 0.1 to 50 nM.

Turning to `CCCCCCCCCCCCNC(=O)[C@@H]1CN(C(=O)c2ccc(C(=O)N3C[C@@H](C(=O)N[C@H]4C[C@@H]4c4ccccc4)[C@H](C(=O)N[C@H]4C[C@@H]4c4ccccc4)C3)cc2)CCN1C(C)=O` [Compound 255, (3S,4S)-1-(4-((S)-4-acetyl-3-(dodecylcarbamoyl)piperazine-1-carbonyl)benzoyl)-N3,N4-bis((1S,2R)-2-phenylcyclopropyl)pyrrolidine-3,4-dicarboxamide], the EC50 was greater than 1000 nM.

Regarding `CCCCCCCCCCCCCCNC(=O)[C@@H]1CN(C(=O)c2ccc(C(=O)N3C[C@@H](C(=O)N[C@H]4C[C@@H]4c4ccccc4)[C@H](C(=O)N[C@H]4C[C@@H]4c4ccccc4)C3)cc2)C[C@H]1NC` [Compound 098, (3S,4S)-1-(4-((3S,4R)-3-(methylamino)-4-(tetradecylcarbamoyl)pyrrolidine-1-carbonyl)benzoyl)-N3,N4-bis((1S,2R)-2-phenylcyclopropyl)pyrrolidine-3,4-dicarboxamide], the EC50 was in the range of 0.1 to 50 nM.
